According to patent US12459951B2, “Compounds that interact with RAS superfamily proteins for treatment of cancers, inflammatory diseases, rasopathies, and fibrotic disease” (SHY Therapeutics, LLC, priority 2022, dated 2025):

Experiments:
[1] = test system: Akt phosphorylation; assay: Akt Phosphorylation Assay (western blot), Panc-1; assay type: cell-based, human; settings: at 10 μM, * = activation
Method in brief: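 Phospho-Akt (Ser473) was measured by western blot in lysates of KRas G12D Panc-1 cells exposed to test compound for 6 h at 37 °C, either at 10 μM final with 0.3% DMSO or as serial dilutions for IC50. One format used overnight 0.5% FBS starvation followed by a 15 min pulse of 1.5 ng/ml EGF. The other used cells in 10% FBS with no stimulation.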

[2] = test system: KRas G12D mutant; assay: Ras GTP Binding Domain Inhibition Assay (Ras Superfamily Assay); settings: 20 μM compound; for KRas G12D mutant + SOS: % inh.: with SOS; for KRas G12D mutant: % inh.: without SOS
Method in brief: (§1)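 Binding of 100 nM fluorescent GTP (Cy3 or Cy5, 45 min, room temperature) was read after washes from plate-captured His-tagged protein. Beforehand, compounds at 20 μM or in dilution series for IC50 sat 3 h on the protein in Tris buffer pH 7.4 or 7.0 with 1% DMSO, Sos GEF optionally added for the last hour.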

[3] = test system: KRas wild type; assay: as above; settings: 20 μM compound; for KRas wild type + SOS: % inh.: with SOS; for KRas wild type: % inh.: without SOS
Method in brief: as §1

[4] = target: T1, Rac-1 (Homo sapiens, UniProt P63000); assay: as above; settings: read-out: Rac-1: % inh.
T1 construct: made in house
Method in brief: as §1

| KRas G12D mutant + SOS: % inh. [2] | KRas G12D mutant: % inh. [2] | KRas wild type + SOS: % inh. [3] | KRas wild type: % inh. [3] | inhibition at 20 µM [4] | SMILES | % inh of Akt phosphorylation in Panc-1 [1] |
| --- | --- | --- | --- | --- | --- | --- |
| 0 (0 = 0% inhibition) | 0 (0 = 0% inhibition) | 0 (0 = 0% inhibition) | 0 (0 = 0% inhibition) | 0% | COc1cc(-c2cn3nc(-c4nccn4C)nc(N[C@@H]4CC[C@@H](OC)C4)c3c2C)ccn1 (racemic) [Compound 163, rac N-((1R,3R)-3-Methoxycyclopentyl)-6-(2-methoxypyridin-4-yl)-5-methyl-2-(1-methyl-1H-imidazol-2-yl)pyrrolo[2,1-f][1,2,4]triazin-4-amine] | A* (1-25% activation) |
| D (D = 76-100% inhibition) | D (D = 76-100% inhibition) | D (D = 76-100% inhibition) | D (D = 76-100% inhibition) | 50 to 75% | Cc1c(-c2ccn(C3CC3)n2)cn2nc(-c3nccn3C)nc(Nc3cc(O)ccn3)c12 [Compound 150, 2-((6-(1-Cyclopropyl-1H-pyrazol-3-yl)-5-methyl-2-(1-methyl-1H-imidazol-2-yl)pyrrolo[2,1-f][1,2,4]triazin-4-yl)amino)pyridin-4-ol] | B* (26-49% activation) |

More lines, now with the values behind:

| SMILES | KRas G12D mutant + SOS: % inh. [2] | KRas G12D mutant: % inh. [2] | KRas wild type + SOS: % inh. [3] | KRas wild type: % inh. [3] | inhibition at 20 µM [4] | % inh of Akt phosphorylation in Panc-1 [1] |
| --- | --- | --- | --- | --- | --- | --- |
| Cc1c(-c2ccn(C)n2)cn2nc(-c3nccn3C)nc(Nc3cc4n(n3)CCC4)c12 [Compound 100, N-(5,6-Dihydro-4H-pyrrolo[1,2-b]pyrazol-2-yl)-5-methyl-2-(1-methyl-1H-imidazol-2-yl)-6-(1-methyl-1H-pyrazol-3-yl)pyrrolo[2,1-f][1,2,4]triazin-4-amine] | D (D = 76-100% inhibition) | D (D = 76-100% inhibition) | D (D = 76-100% inhibition) | D (D = 76-100% inhibition) | 76 to 100% | D* (85-100% activation) |
| CO[C@@H]1CC[C@@H](Nc2nc(-c3nccn3C)nn3cc(-c4ccn(C)n4)c(C)c23)C1 (racemic) [Compound 132, rac N-((1R,3R)-3-Methoxycyclopentyl)-5-methyl-2-(1-methyl-1H-imidazol-2-yl)-6-(1-methyl-1H-pyrazol-3-yl)pyrrolo[2,1-f][1,2,4]triazin-4-amine] | A (A = 1-25% inhibition) | B (B = 26-49% inhibition) | 0 (0 = 0% inhibition) | B (B = 26-49% inhibition) | 1 to 25% | A (1-25% inhibition) |
| Cc1c(-c2ccn(C)n2)cn2nc(-c3nccn3C)nc(Nc3cc(OC(F)F)ccn3)c12 [Compound 128, N-(4-(Difluoromethoxy)pyridin-2-yl)-5-methyl-2-(1-methyl-1H-imidazol-2-yl)-6-(1-methyl-1H-pyrazol-3-yl)pyrrolo[2,1-f][1,2,4]triazin-4-amine] | D (D = 76-100% inhibition) | D (D = 76-100% inhibition) | D (D = 76-100% inhibition) | D (D = 76-100% inhibition) | 76 to 100% | D* (85-100% activation) |
